Several values for one entry are separate records, joined by “and”; a condition that tells them apart may be missing. Equal values may be shown once. Toxic doses and inconclusive results are not listed.

The test system of this experiment is P388 leukemia ip, CD2F1 mice, survival T/C. Briefly: NCI In Vivo Anticancer Drug Screen. Data for tumor model P388 Leukemia (intraperitoneal) in CD2F1 (CDF1) mice. To be noted: endpoint: median survival time, higher = longer survival. In short, it runs like this:
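Mice carrying the transplanted tumor received test compound or vehicle. Survival was recorded in each group, and the value is the treated-group measurement divided by that of the vehicle-treated control group.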

Setting [1] is: dose: 50.0 mg/kg/injection, schedule: Q01DX005 (ip), vehicle: Klucel (hydroxypropylcellulose) (HPC).
Where [2] appears, read: dose: 100.0 mg/kg/injection, schedule: Q01DX005 (ip), vehicle: Klucel (hydroxypropylcellulose) (HPC).
Where [3] appears, read: dose: 200.0 mg/kg/injection, schedule: Q01DX005 (ip), vehicle: Klucel (hydroxypropylcellulose) (HPC).
[4] abbreviates: dose: 60.0 mg/kg/injection, schedule: Q01DX005 (ip), vehicle: saline.
Setting [5] is: dose: 120.0 mg/kg/injection, schedule: Q01DX005 (ip), vehicle: saline.
The mark [6] stands for this setting: dose: 240.0 mg/kg/injection, schedule: Q01DX005 (ip), vehicle: saline.
The mark [7] stands for this setting: dose: 50.0 mg/kg/injection, schedule: Q01DX009 (ip), vehicle: saline.
Setting [8] is: dose: 100.0 mg/kg/injection, schedule: Q01DX009 (ip), vehicle: saline.
The mark [9] stands for this setting: dose: 200.0 mg/kg/injection, schedule: Q01DX009 (ip), vehicle: saline.
The mark [10] stands for this setting: dose: 60.0 mg/kg/injection, schedule: Q01DX005 (ip), vehicle: saline with Tween-80.
Setting [11] is: dose: 120.0 mg/kg/injection, schedule: Q01DX005 (ip), vehicle: saline with Tween-80.
Where [12] appears, read: dose: 240.0 mg/kg/injection, schedule: Q01DX005 (ip), vehicle: saline with Tween-80.

Consider `CC(=O)Nc1ccc2nc3ccc(NC(C)=O)cc3[n+](-c3ccccc3)c2c1`, for which the T/C is, setting by setting: (dose: 31.3 mg/kg/injection, schedule: Q01DX010 (ip), vehicle: saline) 177 % of control; (dose: 62.5 mg/kg/injection, schedule: Q01DX010 (ip), vehicle: saline) 204 % of control; (dose: 125.0 mg/kg/injection, schedule: Q01DX010 (ip), vehicle: saline) 200 % of control.
In the case of `CC(O)C(=O)N(CCO)CCO` (stereo not drawn), the T/C reads like this: (dose: 50.0 mg/kg/injection, schedule: Q01DX005 (ip), vehicle: saline) 108 % of control; (dose: 100.0 mg/kg/injection, schedule: Q01DX005 (ip), vehicle: saline) 101 % of control; (dose: 200.0 mg/kg/injection, schedule: Q01DX005 (ip), vehicle: saline) 104 % of control.
As to `CCOC(=O)c1[nH]cnc1/N=N/c1nc(O)c(C#N)[nH]1`, the T/C is, setting by setting: (dose: 60.0 mg/kg/injection, schedule: Q01DX005 (ip), vehicle: suspension in saline) 97 % of control; (dose: 120.0 mg/kg/injection, schedule: Q01DX005 (ip), vehicle: suspension in saline) 100 % of control; (dose: 240.0 mg/kg/injection, schedule: Q01DX005 (ip), vehicle: suspension in saline) 100 % of control.
For the compound `CCCCCCOC(=O)c1ccccc1NC(=O)NN1CCCCCC1`, the T/C was 100 % of control under setting [1], 102 % of control under setting [2] and 100 % of control under setting [3].
As to `CC1=C[P+](c2ccccc2)(c2ccccc2)C=C(c2ccccc2)O1`, the T/C is 105 % of control (dose: 3.12 mg/kg/injection, schedule: Q01DX005 (ip), vehicle: saline); 122 % of control and 123 % of control (dose: 6.25 mg/kg/injection, schedule: Q01DX005 (ip), vehicle: saline); 118 % of control (dose: 12.5 mg/kg/injection, schedule: Q01DX005 (ip), vehicle: saline).
For `Nc1ccccc1C(=O)On1nnc2ccccc2c1=O`, the T/C by setting is: (dose: 100.0 mg/kg/injection, schedule: Q01DX001 (ip), vehicle: Klucel (hydroxypropylcellulose) (HPC)) 103 % of control; (dose: 200.0 mg/kg/injection, schedule: Q01DX001 (ip), vehicle: Klucel (hydroxypropylcellulose) (HPC)) 103 % of control; (dose: 400.0 mg/kg/injection, schedule: Q01DX001 (ip), vehicle: Klucel (hydroxypropylcellulose) (HPC)) 100 % of control.
Consider `CC(C)=CCCC(=O)Cc1nc2nnc(N)n2nc1CC(=O)CCC=C(C)C`, for which the T/C by setting is: under setting [4], 100 % of control; under setting [5], 98 % of control; under setting [6], 104 % of control.
`CCOCC(=O)N[C@H]1CCc2cc(OC)c(OC)c(OC)c2-c2ccc(OC)c(=O)cc21`: the T/C (dose: 0.31 mg/kg/injection, schedule: Q01DX009 (ip), vehicle: water) is 150 % of control; the T/C (dose: 0.63 mg/kg/injection, schedule: Q01DX009 (ip), vehicle: water) was 171 % of control; the T/C (dose: 1.25 mg/kg/injection, schedule: Q01DX009 (ip), vehicle: water) was 198 % of control and 221 % of control.
As to `CCOC(=O)C1=C(NC(C)=O)Sc2ccccc2C1`, the T/C under setting [7] is 94 % of control, the T/C under setting [8] is 103 % of control and the T/C under setting [9] is 92 % of control.
Regarding `CC(/C=N/Nc1ccccc1)=N\N=c1/scc(-c2ccc(Br)cc2)n1-c1ccc(C)cc1`, the T/C by setting is: (dose: 100.0 mg/kg/injection, schedule: Q01DX001 (ip), vehicle: saline with Tween-80) 88 % of control; (dose: 400.0 mg/kg/injection, schedule: Q01DX001 (ip), vehicle: saline with Tween-80) 86 % of control.
For `Cc1nnc2c3nccnc3c(Cl)nn12`, the T/C is 105 % of control (dose: 15.0 mg/kg/injection, schedule: Q01DX005 (ip), vehicle: saline with Tween-80); 112 % of control (dose: 30.0 mg/kg/injection, schedule: Q01DX005 (ip), vehicle: saline with Tween-80); 102 % of control and 105 % of control under setting [10].
Take `COc1cc(C=Nc2c[nH]c(=O)[nH]c2=O)ccc1O`: the T/C is, setting by setting: under setting [7], 93 % of control; under setting [8], 96 % of control; under setting [9], 98 % of control.
In the case of `COc1ccc(Cc2cc3c(cc2OCC(N)=O)OCO3)cc1`, the T/C by setting is: (dose: 6.25 mg/kg/injection, schedule: Q01DX005 (ip), vehicle: saline with Tween-80) 90 % of control; (dose: 12.5 mg/kg/injection, schedule: Q01DX005 (ip), vehicle: saline with Tween-80) 90 % of control.
As for `CC(C)n1nnc2c3ccccc3c3ccccc3c21`, the T/C by setting is: under setting [10], 109 % of control; under setting [11], 102 % of control; under setting [12], 105 % of control.
In the case of `CCC(C)(S)CN` (stereo not drawn), the T/C (dose: 100.0 mg/kg/injection, schedule: Q01DX001 (ip), vehicle: saline) is 90 % of control; the T/C (dose: 200.0 mg/kg/injection, schedule: Q01DX001 (ip), vehicle: saline) was 90 % of control; the T/C (dose: 400.0 mg/kg/injection, schedule: Q01DX001 (ip), vehicle: saline) was 92 % of control.
As for `NC(=O)C1CC(O)CN1C(=O)c1cccnc1` (stereo not drawn), the T/C was 101 % of control under setting [4], 100 % of control under setting [5] and 93 % of control under setting [6].
Take `CN(CCO)CC(O)Cn1cnc2c(N)ncnc21` (stereo not drawn): the T/C reads like this: under setting [4], 95 % of control; under setting [5], 97 % of control; under setting [6], 100 % of control.
Take `CC(C)C(=O)CC(=O)CCC(=O)Nc1cccc(Cl)c1`: the T/C is, setting by setting: under setting [10], 105 % of control; under setting [11], 102 % of control; under setting [12], 107 % of control.
Take `COC(=O)C1=CCC23CC[C@H](C(C)(/C=C/C=C(\C)C(=O)O)OC2=O)[C@]3(O)CC1` (stereo partly drawn): the T/C is, setting by setting: (dose: 3.88 mg/kg/injection, schedule: Q01DX005 (ip), vehicle: sodium bicarbonate) 87 % of control; (dose: 7.75 mg/kg/injection, schedule: Q01DX005 (ip), vehicle: sodium bicarbonate) 100 % of control; (dose: 15.5 mg/kg/injection, schedule: Q01DX005 (ip), vehicle: sodium bicarbonate) 103 % of control; (dose: 31.0 mg/kg/injection, schedule: Q01DX005 (ip), vehicle: sodium bicarbonate) 108 % of control.
Consider `CN(C)c1ccc2c3c(c(=O)oc2c1)CCC3`, for which the T/C was 102 % of control (dose: 3.12 mg/kg/injection, schedule: Q01DX009 (ip), vehicle: saline with Tween-80); 112 % of control (dose: 6.25 mg/kg/injection, schedule: Q01DX009 (ip), vehicle: saline with Tween-80); 114 % of control and 115 % of control (dose: 12.5 mg/kg/injection, schedule: Q01DX009 (ip), vehicle: saline with Tween-80); 107 % of control (dose: 25.0 mg/kg/injection, schedule: Q01DX009 (ip), vehicle: saline with Tween-80); 104 % of control and 111 % of control (dose: 50.0 mg/kg/injection, schedule: Q01DX009 (ip), vehicle: saline with Tween-80); 94 % of control (dose: 200.0 mg/kg/injection, schedule: Q01DX009 (ip), vehicle: saline with Tween-80).
As to `COc1ccc(C2(c3ccccc3)c3ccccc3C(=O)c3ccccc32)cc1`, the T/C reads like this: under setting [1], 101 % of control; under setting [2], 103 % of control; under setting [3], 99 % of control.
Regarding `CCc1ccc(/C=C/C(=O)C(C)CN(C)C)cc1` (stereo not drawn), the T/C runs as follows: under setting [4], 105 % of control; under setting [5], 118 % of control.
With `Cc1cc(C)n(-c2cc(N3CCN(C)CC3)ncn2)n1`, the T/C reads like this: under setting [7], 98 % of control; under setting [8], 98 % of control; under setting [9], 98 % of control.
Consider `CC(=O)CCC1C(=O)N(C)C(=O)c2ccccc21` (stereo not drawn), for which the T/C under setting [10] is 98 % of control, the T/C under setting [11] is 99 % of control and the T/C under setting [12] was 91 % of control.
Regarding `CCc1onc(-c2noc(CC)c2C)c1C`, the T/C runs as follows: under setting [4], 98 % of control; under setting [5], 104 % of control; under setting [6], 107 % of control.
For `O=Cc1cc(/C(N=Nc2ccccc2C(=O)O)=N/Nc2ccccc2C(=O)O)nc2[nH]c(=O)ccc12`, the T/C under setting [1] is 95 % of control and the T/C under setting [2] is 100 % of control.
Consider `Cn1c(=O)c2c(ncn2N)n(C)c1=O`, for which the T/C runs as follows: (dose: 60.0 mg/kg/injection, schedule: Q01DX005 (ip), vehicle: Klucel (hydroxypropylcellulose) (HPC)) 111 % of control; (dose: 120.0 mg/kg/injection, schedule: Q01DX005 (ip), vehicle: Klucel (hydroxypropylcellulose) (HPC)) 102 % of control; (dose: 240.0 mg/kg/injection, schedule: Q01DX005 (ip), vehicle: Klucel (hydroxypropylcellulose) (HPC)) 107 % of control.
For `Cn1cnc2cc3c(cc2c1=O)nc1n3CCCC1`, the T/C is, setting by setting: (dose: 100.0 mg/kg/injection, schedule: Q04DX003 (ip), vehicle: saline) 102 % of control; (dose: 200.0 mg/kg/injection, schedule: Q04DX003 (ip), vehicle: saline) 95 % of control.

Values taken from PubChem BioAssay AID330 (DTP/NCI, 2004).
